Tested on: SV40 immortalized human corneal epithelial cells (HCE-T)
Experiment: Evaluation test of protective effect on corneal epithelial cell (drying load)
Assay type: cell-based
Conditions: 1 h pre-culture with 0.25% (w/v) propylene glycol and/or 0.03% (w/v) sodium hyaluronate, dried 7.5 minutes, FIG. 1
Method: SV40 immortalized human corneal epithelial cells: (HCE-T: RIKEN BioResource Center, Japan, Cell No.: RCB2280) were seeded to a 96-well plate (1×10^4 cells/well) and cultured for one day in an SHEM culture medium. On the next day, the culture medium was replaced with a D-MEM/F12 culture medium containing 0.25% (w/v) propylene glycol, 0.03% (w/v) sodium hyaluronate, or 0.25% (w/v) propylene glycol and 0.03% (w/v) sodium hyaluronate, and thereafter the corneal epithelial cells were cultured for one hour (hereinafter, each also referred to as a “propylene glycol alone group,” a “hyaluronic acid alone group,” or a “propylene glycol/hyaluronic acid combination group”). It is noted that a group that a culture medium was replaced with a D-MEM/F12 culture medium not containing a tested substance and thereafter the corneal epithelial cells were cultured for one hour was defined as a “vehicle group”. After culture, a culture medium of each group was replaced with a D-MEM/F12 culture medium not containing a tested substance and then cells were dried for 7.5 minutes. After drying load, cell viability was measured using Cell Proliferation Assay Kit (manufactured by Promega, catalogue No.: G3580) (corresponding to absorbance of 490 nm).

Compound	Suppression of decrease in cell viability of corneal epithelial cells due to drying load
sodium hyaluronate [hyaluronic acid]	not sufficiently suppressed
CC(O)CO (centres unmarked) [propylene glycol]	not sufficiently suppressed
